Experimental data: PMC11054271, “ABCG2 Transports the Flukicide Nitroxynil and Affects Its Biodistribution and Secretion into Milk” (Pharmaceutics, 2024)

Target: T1, murine Abcg2 (Mus musculus, UniProt Q7TMS5)
T1 sequence (Q7TMS5 1-657): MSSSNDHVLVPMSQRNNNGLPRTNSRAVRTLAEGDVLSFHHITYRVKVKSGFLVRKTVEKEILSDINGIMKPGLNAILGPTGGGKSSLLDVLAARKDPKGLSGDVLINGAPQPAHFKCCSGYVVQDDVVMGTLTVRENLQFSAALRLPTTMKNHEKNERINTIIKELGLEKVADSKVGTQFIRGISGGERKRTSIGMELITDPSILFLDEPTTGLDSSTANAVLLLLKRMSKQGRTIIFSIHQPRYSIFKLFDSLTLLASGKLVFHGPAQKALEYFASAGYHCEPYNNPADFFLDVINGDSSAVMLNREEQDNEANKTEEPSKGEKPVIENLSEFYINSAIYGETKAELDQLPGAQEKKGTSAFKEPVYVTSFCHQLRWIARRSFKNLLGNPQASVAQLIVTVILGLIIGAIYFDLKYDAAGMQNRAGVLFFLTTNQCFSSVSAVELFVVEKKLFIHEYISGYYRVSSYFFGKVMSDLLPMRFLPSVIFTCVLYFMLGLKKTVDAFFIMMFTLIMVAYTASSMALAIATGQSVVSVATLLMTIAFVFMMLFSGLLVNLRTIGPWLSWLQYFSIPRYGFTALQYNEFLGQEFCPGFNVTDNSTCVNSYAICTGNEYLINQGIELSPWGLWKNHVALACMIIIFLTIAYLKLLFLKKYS
Test: Milk secretion experiment in lactating wild-type and Abcg2−/− female mice
Format: in vivo
Parameters: from tissue; host or cells: whole animal: wild-type vs Abcg2-/- mice, >99% FVB/N background
Details: lactating female mice, 30 min after 10 mg/kg i.v.
Protocol: All in vivo experiments were carried out using wild-type and Abcg2^−/− mice aged between 8 and 17 weeks, all of >99% FVB/N genetic background, generated and gently supplied by A. H. Schinkel (Netherlands Cancer Institute). Mice were housed and handled complying with institutional and ARRIVE guidelines and European legislation (EU Directive 2010/63/EU for animal experiments). Additionally, experimental procedures were approved by the Animal Care and Use Committee of the University of León and the Junta de Castilla y León (ULE_011_2019).
Pups of approximately 10 days old were separated from their mothers (wild-type (n = 10) and Abcg2^−/− (n = 11) female mice) 3 h before beginning the experiment. Milk secretion experiments were performed as previously described. Nitroxynil solution was prepared by diluting Distomicide® (250 mg/mL) commercial solution in saline and administered at a dose of 150 μL/30 g bw into the tail vein under anesthesia with isoflurane. […]
Plasma, milk and tissue samples from each animal were individually processed and analyzed without pooling, while samples from transport assays were not processed. […]
Waters 2695 separation module and Waters 2998 UV photodiode array detector set at 270 nm were used for samples analysis. […] Limit of detection (LOD) and quantification (LOQ) were calculated as previously described. […]

N#Cc1cc(I)c(O)c([N+](=O)[O-])c1 [nitroxynil]
Milk concentration, fold higher in wild-type compared with Abcg2−/−: 1.9 fold
Milk-to-plasma ratio, fold higher in wild-type compared with Abcg2−/−: 2.1 fold
